# In ChEMBL document CHEMBL5236646, “Design, synthesis, and biological evaluation of BRD4 degraders” (Bioorg Med Chem, 2023):
# pIC50: −log10 of the molar value.
# Assays:
# MM1.S = experiment: Antiproliferative activity against human MM1.S cells assessed as inhibition of cell growth incubated for 72 hrs MTS assay; type: functional, cell-based
# MV4-11 = experiment: Antiproliferative activity against human […] cells assessed as inhibition of cell growth incubated for 72 hrs MTS assay; type: functional, cell-based; settings: MV4-11, 72 h
# [1] = biological target: T1, Protein cereblon/Bromodomain-containing protein 4 (Homo sapiens) (UniProt O60885+Q96SW2); experiment: Protac activity at CRBN/BRD4 in human MM1.S cells assessed as induction of BRD4 protein degradation by measuring residual activity at 0.06 uM incubated for 3 hrs by Western blot analysis relative to control; type: cell-based
# [2] = biological target: T1, Protein cereblon/Bromodomain-containing protein 4 (Homo sapiens); experiment: Protac activity at CRBN/BRD4 in human MM1.S cells assessed as induction of BRD4 protein degradation by measuring residual activity at 0.18 uM incubated for 3 hrs by Western blot analysis relative to control; type: cell-based
# [3] = biological target: T1, Protein cereblon/Bromodomain-containing protein 4 (Homo sapiens); experiment: Protac activity at CRBN/BRD4 in human MM1.S cells assessed as induction of BRD4 protein degradation by measuring residual activity at 0.54 uM incubated for 3 hrs by Western blot analysis relative to control; type: cell-based
# [4] = biological target: T1, Protein cereblon/Bromodomain-containing protein 4 (Homo sapiens); experiment: Protac activity at CRBN/BRD4 in human MV4-11 cells assessed as induction of BRD4 protein degradation by measuring residual activity at 0.006 uM incubated for 3 hrs by Western blot analysis relative to control; type: cell-based
# [5] = biological target: T1, Protein cereblon/Bromodomain-containing protein 4 (Homo sapiens); experiment: Protac activity at CRBN/BRD4 in human MV4-11 cells assessed as induction of BRD4 protein degradation by measuring residual activity at 0.018 uM incubated for 3 hrs by Western blot analysis relative to control; type: cell-based
# [6] = biological target: T1, Protein cereblon/Bromodomain-containing protein 4 (Homo sapiens); experiment: Protac activity at CRBN/BRD4 in human MV4-11 cells assessed as induction of BRD4 protein degradation by measuring residual activity at 0.054 uM incubated for 3 hrs by Western blot analysis relative to control; type: cell-based
# [7] = biological target: T1, Protein cereblon/Bromodomain-containing protein 4 (Homo sapiens); experiment: Protac activity at CRBN/BRD4 in human MM1.S cells assessed as induction of BRD4 protein degradation by measuring residual activity at 0.04 uM incubated for 3 hrs by Western blot analysis relative to control; type: cell-based
# [8] = biological target: T1, Protein cereblon/Bromodomain-containing protein 4 (Homo sapiens); experiment: Protac activity at CRBN/BRD4 in human MM1.S cells assessed as induction of BRD4 protein degradation by measuring residual activity at 0.12 uM incubated for 3 hrs by Western blot analysis relative to control; type: cell-based
# [9] = biological target: T1, Protein cereblon/Bromodomain-containing protein 4 (Homo sapiens); experiment: Protac activity at CRBN/BRD4 in human MM1.S cells assessed as induction of BRD4 protein degradation by measuring residual activity at 0.36 uM incubated for 3 hrs by Western blot analysis relative to control; type: cell-based
# [10] = biological target: T1, Protein cereblon/Bromodomain-containing protein 4 (Homo sapiens); experiment: Protac activity at CRBN/BRD4 in human MV4-11 cells assessed as induction of BRD4 protein degradation by measuring residual activity at 0.01 uM incubated for 3 hrs by Western blot analysis relative to control; type: cell-based
# [11] = biological target: T1, Protein cereblon/Bromodomain-containing protein 4 (Homo sapiens); experiment: Protac activity at CRBN/BRD4 in human MV4-11 cells assessed as induction of BRD4 protein degradation by measuring residual activity at 0.03 uM incubated for 3 hrs by Western blot analysis relative to control; type: cell-based
# [12] = biological target: T1, Protein cereblon/Bromodomain-containing protein 4 (Homo sapiens); experiment: Protac activity at CRBN/BRD4 in human MV4-11 cells assessed as induction of BRD4 protein degradation by measuring residual activity at 0.09 uM incubated for 3 hrs by Western blot analysis relative to control; type: cell-based
# [13] = Inhibition of TGF-beta induced activation of human MRC5 cells assessed as residual BRD4 protein level at 0.1 uM by Western blot analysis (reference value: 96%); type: functional
# [14] = Inhibition of TGF-beta induced activation of human MRC5 cells assessed as residual BRD4 protein level at 0.5 uM by Western blot analysis (reference value: 96%); type: functional
# [15] = biological target: T1, Protein cereblon/Bromodomain-containing protein 4 (Homo sapiens); experiment: Protac activity at CRBN/BRD4 in human MM1.S cells assessed as induction of BRD4 protein degradation by measuring residual activity at 0.1 uM incubated for 3 hrs by Western blot analysis relative to control; type: cell-based
# [16] = biological target: T1, Protein cereblon/Bromodomain-containing protein 4 (Homo sapiens); experiment: Protac activity at CRBN/BRD4 in human MM1.S cells assessed as induction of BRD4 protein degradation by measuring residual activity at 0.3 uM incubated for 3 hrs by Western blot analysis relative to control; type: cell-based
# [17] = biological target: T1, Protein cereblon/Bromodomain-containing protein 4 (Homo sapiens); experiment: Protac activity at CRBN/BRD4 in human MM1.S cells assessed as induction of BRD4 protein degradation by measuring residual activity at 1 uM incubated for 3 hrs by Western blot analysis relative to control; type: cell-based
# [18] = biological target: T1, Protein cereblon/Bromodomain-containing protein 4 (Homo sapiens); experiment: Protac activity at CRBN/BRD4 in human MV4-11 cells assessed as induction of BRD4 protein degradation by measuring residual activity at 0.02 uM incubated for 3 hrs by Western blot analysis relative to control; type: cell-based
# [19] = biological target: T1, Protein cereblon/Bromodomain-containing protein 4 (Homo sapiens); experiment: Protac activity at CRBN/BRD4 in human MV4-11 cells assessed as induction of BRD4 protein degradation by measuring residual activity at 0.06 uM incubated for 3 hrs by Western blot analysis relative to control; type: cell-based
# [20] = biological target: T1, Protein cereblon/Bromodomain-containing protein 4 (Homo sapiens); experiment: Protac activity at CRBN/BRD4 in human MV4-11 cells assessed as induction of BRD4 protein degradation by measuring residual activity at 0.18 uM incubated for 3 hrs by Western blot analysis relative to control; type: cell-based
# [21] = biological target: T1, Protein cereblon/Bromodomain-containing protein 4 (Homo sapiens); experiment: Protac activity at CRBN/BRD4 in human MM1.S cells assessed as induction of BRD4 protein degradation by measuring residual activity at 0.07 uM incubated for 3 hrs by Western blot analysis relative to control; type: cell-based
# [22] = biological target: T1, Protein cereblon/Bromodomain-containing protein 4 (Homo sapiens); experiment: Protac activity at CRBN/BRD4 in human MM1.S cells assessed as induction of BRD4 protein degradation by measuring residual activity at 0.2 uM incubated for 3 hrs by Western blot analysis relative to control; type: cell-based
# [23] = biological target: T1, Protein cereblon/Bromodomain-containing protein 4 (Homo sapiens); experiment: Protac activity at CRBN/BRD4 in human MM1.S cells assessed as induction of BRD4 protein degradation by measuring residual activity at 0.6 uM incubated for 3 hrs by Western blot analysis relative to control; type: cell-based
# [24] = biological target: T1, Protein cereblon/Bromodomain-containing protein 4 (Homo sapiens); experiment: Protac activity at CRBN/BRD4 in human MM1.S cells assessed as induction of BRD4 protein degradation by measuring residual activity at 1.8 uM incubated for 3 hrs by Western blot analysis relative to control; type: cell-based
# [25] = biological target: T1, Protein cereblon/Bromodomain-containing protein 4 (Homo sapiens); experiment: Protac activity at CRBN/BRD4 in human MV4-11 cells assessed as induction of BRD4 protein degradation by measuring residual activity at 0.04 uM incubated for 3 hrs by Western blot analysis relative to control; type: cell-based
# [26] = biological target: T1, Protein cereblon/Bromodomain-containing protein 4 (Homo sapiens); experiment: Protac activity at CRBN/BRD4 in human MV4-11 cells assessed as induction of BRD4 protein degradation by measuring residual activity at 0.12 uM incubated for 3 hrs by Western blot analysis relative to control; type: cell-based
# [27] = biological target: T1, Protein cereblon/Bromodomain-containing protein 4 (Homo sapiens); experiment: Protac activity at CRBN/BRD4 in human MV4-11 cells assessed as induction of BRD4 protein degradation by measuring residual activity at 0.36 uM incubated for 3 hrs by Western blot analysis relative to control; type: cell-based
# T1 sequence (Q96SW2 whole entry, looked up, other chains not shown): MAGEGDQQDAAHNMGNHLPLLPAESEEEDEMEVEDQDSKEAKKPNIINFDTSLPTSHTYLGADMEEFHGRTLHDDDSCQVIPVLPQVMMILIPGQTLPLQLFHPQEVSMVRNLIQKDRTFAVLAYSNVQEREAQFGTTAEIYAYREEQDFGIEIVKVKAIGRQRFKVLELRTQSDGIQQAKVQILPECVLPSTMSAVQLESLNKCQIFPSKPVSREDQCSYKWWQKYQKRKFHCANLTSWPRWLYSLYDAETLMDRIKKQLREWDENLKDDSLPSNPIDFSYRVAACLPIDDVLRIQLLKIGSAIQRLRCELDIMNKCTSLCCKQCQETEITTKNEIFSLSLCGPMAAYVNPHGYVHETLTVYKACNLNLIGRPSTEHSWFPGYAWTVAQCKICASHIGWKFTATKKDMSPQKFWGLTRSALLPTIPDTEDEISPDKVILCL
smiles,measurement,setting,value
Cc1sc2c(c1C)C(c1ccc(Cl)cc1)=N[C@@H](CC(=O)NCCCCC(=O)NCCOc1cccc3c1C(=O)N(C1CCC(=O)NC1=O)C3=O)c1nnc(C)n1-2 (some centres not stated),pIC50,MM1.S,6.79
same,pIC50,MV4-11,7.74
same,Activity,[1],90%
same,Activity,[2],111%
same,Activity,[3],111%
same,Activity,[4],105%
same,Activity,[5],105%
same,Activity,[6],117%
Cc1sc2c(c1C)C(c1ccc(Cl)cc1)=N[C@@H](CC(=O)NCCCCC(=O)NCc1ccc(CNc3cccc4c3C(=O)N(C3CCC(=O)NC3=O)C4=O)cc1)c1nnc(C)n1-2 (some centres not stated),pIC50,MM1.S,6.88
same,pIC50,MV4-11,7.59
same,Activity,[7],121%
same,Activity,[8],125%
same,Activity,[9],116%
same,Activity,[10],103%
same,Activity,[11],104%
same,Activity,[12],112%
COC(=O)c1ccc2c(c1)NC(=O)/C2=C(\Nc1ccc(N(C)C(=O)CN2CCN(C)CC2)cc1)c1ccccc1 [NINTEDANIB],Activity,[13],88%
same,Activity,[14],71%
Cc1sc2c(c1C)C(c1ccc(Cl)cc1)=N[C@@H](CC(=O)NCCNC(=O)c1ccc(COc3cccc4c3C(=O)N(C3CCC(=O)NC3=O)C4=O)cc1)c1nnc(C)n1-2 (some centres not stated),pIC50,MM1.S,6.26
same,pIC50,MV4-11,7.32
same,Activity,[15],117%
same,Activity,[16],136%
same,Activity,[17],123%
same,Activity,[18],126%
same,Activity,[19],102%
same,Activity,[20],82%
Cc1sc2c(c1C)C(c1ccc(Cl)cc1)=N[C@@H](CC(=O)NCCCCNC(=O)c1ccc(COc3cccc4c3C(=O)N(C3CCC(=O)NC3=O)C4=O)cc1)c1nnc(C)n1-2 (some centres not stated),pIC50,MM1.S,6.53
same,pIC50,MV4-11,7.60
same,Activity,[21],117%
same,Activity,[22],97%
same,Activity,[23],87%
same,Activity,[10],126%
same,Activity,[11],108%
same,Activity,[12],91%
Cc1sc2c(c1C)C(c1ccc(Cl)cc1)=N[C@@H](CC(=O)NCCCCNC(=O)c1ccc(CNc3cccc4c3C(=O)N(C3CCC(=O)NC3=O)C4=O)cc1)c1nnc(C)n1-2 (some centres not stated),pIC50,MM1.S,6.22
same,pIC50,MV4-11,6.89
same,Activity,[22],144%
same,Activity,[23],141%
same,Activity,[24],139%
same,Activity,[25],121%
same,Activity,[26],99%
same,Activity,[27],131%
